According to patent US10015966B2, “Fungicidal pyrazole mixtures” (E I DU PONT DE NEMOURS AND COMPANY, priority 2012, dated 2018):
Like-named read-outs stand apart in the source and are kept apart here. Marks after values point to notes of the source that are not given here.

Legend:
Assay type in all cases: in vivo
Phytophthora infestans = settings: tomato late blight
[1] = system: Puccinia recondita f. sp. tritici; experiment: Test H: preventive spray on wheat seedlings, wheat leaf rust, visual disease rating; settings: 200 ppm test suspension
Description: General protocol for preparing test suspensions for Tests A-I: the test compounds were first dissolved in acetone in an amount equal to 3% of the final volume and then suspended at the desired concentration (in ppm) in acetone and purified water (50/50 mix by volume) containing 250 ppm of the surfactant Trem® 014 (polyhydric alcohol esters). The resulting test suspensions were then used in Tests A-I. Each test was conducted in triplicate, and the results were averaged. Spraying a 200 ppm test suspension to the point of run-off on the test plants was the equivalent of a rate of about 800 g/ha. Unless otherwise indicated, the rating values indicate a 200 ppm test suspension was used. (An asterisk “*” next to the rating value indicates a 40 ppm test suspension was used.) The test suspension was sprayed to the point of run-off on wheat seedlings. The following day the seedlings were inoculated with a spore suspension of Puccinia recondita f. sp. tritici (the causal agent of wheat leaf rust) and incubated in a saturated atmosphere at 20° C. for 24 h, and then moved to a growth chamber at 20° C. for 6 days, after which time visual disease ratings were made. Results for Tests A-I are given in Table A. In the Table, a rating of 100 indicates 100% disease control and a rating of 0 indicates no disease control (relative to the controls). A hyphen (-) indicates no test results.

Rhizoctonia solani = experiment: Test D: preventive spray on creeping bent grass seedlings, turf brown patch, disease rating; settings: 200 ppm test suspension
Description: General protocol for preparing test suspensions for Tests A-I: the test compounds were first dissolved in acetone in an amount equal to 3% of the final volume and then suspended at the desired concentration (in ppm) in acetone and purified water (50/50 mix by volume) containing 250 ppm of the surfactant Trem® 014 (polyhydric alcohol esters). The resulting test suspensions were then used in Tests A-I. Each test was conducted in triplicate, and the results were averaged. Spraying a 200 ppm test suspension to the point of run-off on the test plants was the equivalent of a rate of about 800 g/ha. Unless otherwise indicated, the rating values indicate a 200 ppm test suspension was used. (An asterisk “*” next to the rating value indicates a 40 ppm test suspension was used.) The test suspension was sprayed to the point of run-off on creeping bent grass (Agrostis sp.) seedlings. The following day the seedlings were inoculated with a bran and mycelial slurry of Rhizoctonia solani (the causal agent of turf brown patch) and incubated in a saturated atmosphere at 27° C. for 48 h, and then moved to a growth chamber at 27° C. for 3 days, after which time disease ratings were made. Results for Tests A-I are given in Table A. In the Table, a rating of 100 indicates 100% disease control and a rating of 0 indicates no disease control (relative to the controls). A hyphen (-) indicates no test results.

[2] = system: Puccinia recondita f. sp. tritici; experiment: Test G: curative spray on inoculated wheat seedlings, wheat leaf rust, visual disease rating; settings: 200 ppm test suspension
Description: General protocol for preparing test suspensions for Tests A-I: the test compounds were first dissolved in acetone in an amount equal to 3% of the final volume and then suspended at the desired concentration (in ppm) in acetone and purified water (50/50 mix by volume) containing 250 ppm of the surfactant Trem® 014 (polyhydric alcohol esters). The resulting test suspensions were then used in Tests A-I. Each test was conducted in triplicate, and the results were averaged. Spraying a 200 ppm test suspension to the point of run-off on the test plants was the equivalent of a rate of about 800 g/ha. Unless otherwise indicated, the rating values indicate a 200 ppm test suspension was used. (An asterisk “*” next to the rating value indicates a 40 ppm test suspension was used.) Wheat seedlings were inoculated with a spore suspension of Puccinia recondita f. sp. tritici (the causal agent of wheat leaf rust) and incubated in a saturated atmosphere at 20° C. for 24 h, and then moved to a growth chamber at 20° C. for 2 days. At the end of this time the test suspension was sprayed to the point of run-off, and then the seedlings were moved to a growth chamber at 20° C. for 4 days after which time visual disease ratings were made. […]

[3] = Single oral dose pharmacokinetics in rats, plasma and fat analysed by LC/MS (fat:plasma ratio); settings: single dose via oral gavage, compared to corresponding compounds with a nonhydrogen substituent at the para position of the phenyl ring connected to R^1 and R^2
Description: The pharmacokinetic properties of compounds of Formula 1 can be measured using a wide variety of assay protocols known in the science of pharmacology. In one illustrative method involving a single oral dose, three male and three female rats receive a single dose of a test substance via oral gavage. Approximately 0.25 mL of blood is collected via tail vein immediately prior to dosing, and then at 0.25, 0.5, 1, 2, 4, 8, 12, 24 h and every 24 h thereafter until sacrifice. At sacrifice, fat is also collected to determine the fat:plasma ratio at sacrifice. Blood is collected into tubes that contain ethylenediaminetetracetic acid (EDTA) and centrifuged at 2500×g in order to separate plasma from blood cells. The plasma is then extracted by protein precipitation using, for example, acetonitrile and a protein precipitation plate (e.g., Strata Impact Protein Precipitation Plate, part number CEO-7565 of Phenomenex, Torrance, Calif., U.S.A.) following directions provided for the plate. Alternatively, the plasma is extracted just with acetonitrile, vortexed (i.e. mixed using a vortex mixer), and centrifuged to pellet the proteins. After removal of the proteins, the plasma is analyzed for parent compound and/or metabolites by liquid chromatography-mass spectrometry (LC/MS). The fat is homogenized and extracted by an organic solvent such as acetonitrile. The extract is then analyzed for parent compound and/or metabolites by LC/MS. The plasma pharmacokinetic data is then analyzed using nonlinear modeling software (e.g., WinNonlin™ from Pharsight, Cary, N.C., U.S.A.) to determine half-life of the administered compound in plasma, the time after administration when the maximum plasma concentration is reached (Tmax), the maximum plasma concentration (Cmax) and the area under the plasma concentration curve (AUC). As analysis of fat requires rat sacrifice, fat data is obtained at single time points (i.e. the time of rat sacrifice). However, by using multiple rats sacrificed after different intervals from time of dosing, such parameters as Cmax for fat are determined.

SMILES	Test C rating (% disease control) (Phytophthora infestans; 200 ppm test suspension, preventive spray)	pest or weed control at 200 ppm [1]	Test D rating (% disease control) (Rhizoctonia solani)	Test G rating (% disease control) [2]	Test C rating (% disease control) (Phytophthora infestans; asterisked rating: test suspension other than 200 ppm)	distribution into fat [3]
Cc1nn(C)c(Nc2ccccc2F)c1-c1ccc(F)cc1Cl [Compound 1, 4-(2-chloro-4-fluorophenyl)-N-(2-fluorophenyl)-1,3-dimethyl-1H-pyrazol-5-amine]	0%	99%	99%	–	–	–
Cc1nn(C)c(Nc2c(F)cccc2F)c1-c1ccc(F)cc1Cl [Compound 2, 4-(2-chloro-4-fluorophenyl)-N-(2,6-difluorophenyl)-1,3-dimethyl-1H-pyrazol-5-amine]	–	99%	–	0%	–	–
Cc1nn(C)c(Nc2c(F)cccc2Cl)c1-c1ccc(F)cc1Cl [Compound 3, 4-(2-chloro-4-fluorophenyl)-N-(2-chloro-6-fluorophenyl)-1,3-dimethyl-1H-pyrazol-5-amine]	–	100%	–	100%	0* %	significantly diminished distribution into fat
